Results reported in US20080214563A1, “Benzimidazole Thiophene Compounds As Plk Modulators” (priority 2005, published 2008).
pIC50: −log10 of the molar value.

Legend:
Type in all cases: cell-based
H460 = assay: Methylene Blue Cell Growth Inhibition Assay, H460; conditions: Homo sapiens, NCI-H460, 72 h, read-out: MEB H460 IC50
Experimental: (§1) Normal human foreskin fibroblasts (HFF), human colon (HCT116, RKO), lung (H460, A549) and breast (MCF7) tumor cell lines were cultured in high glucose DMEM (Life Technologies) containing 10% fetal bovine serum (FBS) at 37° C. in a humidified 5% CO2, 95% air incubator. Cells were harvested using trypsin/EDTA, counted using a haemocytometer, and plated in 100 μL of culture media per well, at the following densities, in a 96-well tissue culture plate (Falcon 3075): HFF 5,000 cells/well, HCT116 3,000 cells/well, RKO 2,500 cells/well, H460 2,500 cells/well, A549 5,000 cells/well, MCF7 4,000 cells/well. The next day, compounds were diluted in low glucose DMEM containing 100 μg/mL gentamicin, at twice the final required concentration, from 10 mM stock solutions in DMSO. 100 μL/well of these dilutions were added to the 100 μL of media currently in the assay plates. Medium containing 0.6% DMSO was added to control wells. The final concentration of DMSO in all wells was 0.3%. Cells were incubated at 37° C., 5% CO2 for 72 h. Medium was removed by aspiration. Cell biomass was estimated by staining cells with 80 μL per well methylene blue (Sigma M9140, 0.5% in 50:50 ethanol:water), and incubation at room temperature for 30-60 min. Stain was removed by aspiration and the plates rinsed by immersion in water, then air-dried. To release stain from the cells, 100 μL of solubilization solution was added (1% N-lauroyl sarcosine, Sodium salt, Sigma L5125, in PBS), and plates were shaken gently for about 30 min. Optical density at 620 nm was measured on a microplate reader. Percent inhibition of cell growth was calculated relative to vehicle treated control wells. Concentration of compound that inhibits 50% of cell growth (IC50) was interpolated using nonlinear regression (Levenberg-Marquardt) and the equation, y=Vmax*(1−(x/(K+x)))+Y2, where “K” was equal to the IC50.

A549 = assay: Methylene Blue Cell Growth Inhibition Assay, A549; conditions: Homo sapiens, 72 h, read-out: MEB A549 IC50
Experimental: as §1

RKO = assay: Methylene Blue Cell Growth Inhibition Assay, RKO; conditions: Homo sapiens, 72 h, read-out: MEB RKO IC50
Experimental: as §1

HCT-116 = assay: Cell-Titer Glo Cell Growth Inhibition Assay, HCT116; conditions: Homo sapiens, CellTiter-Glo, 72 h, read-out: CTG HCT116 IC50
Outline: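 Human tumour cells in RPMI1640 + 10% FBS, plated at 500 cells/well, rested overnight, then given two-fold compound dilutions (0.15% DMSO) for 72 h at 37° C, 5% CO2. CellTiter-Glo luminescence read against a day-0 plate; IC50 from 4- or 6-parameter fit after no-cell background subtraction.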

HT29 = assay: Cell-Titer Glo Cell Growth Inhibition Assay, HT29; conditions: Homo sapiens, HT-29, CellTiter-Glo, 72 h, read-out: CTG HT29 IC50
Experimental: (§2) A549-L (human lung), BT474 (human breast), Colo 205 (human colon), H1299 (human lung), Hela (human cervix), HCT-116 (human colon), HN5 (human head and neck), HT29 (human colon), LNCap (human prostate), MCF7 (human breast), MDA-MB468 (human breast), MX-1 (human breast), RPMI 8226 (human peripheral blood), SKOV3 (human ovary) and P388 (murine leukemia) cell lines were cultured in RPMI1640 containing 10% fetal bovine serum at 37° C. in a 5% CO2 incubator. Cell lines were split into T75 flasks (Falcon #353136) two to three days prior to assay set up at density which yields approximately 70-80% confluency at time of harvest for assay. Cells were harvested using 0.25% trypsin with EDTA (Glibco/Invitrogen #25200-056), Cell counts were performed on cell suspensions using Trypan Blue exclusion staining, cells were then plated in 105 uL of culture media per well at the following densities in 96 well Costar #3916 black flat bottom plates: All human cell lines were plated at 500 cells/well. P388 were plated at 250 cells/well. All plates were placed at 5% CO2 37° C. overnight and then test compounds were added the following day. One plate of each cell type is treated with CellTiter-Glo (Promega #G7573) for a day 0 proliferation measurement and read as described below. The test compounds are prepared in clear U bottom polypropylene 96 well plates (Falcon #35-1190 with consecutive two fold dilutions. 9 uL of these dilutions was added into each well of the cell plates. The final concentration of DMSO in all wells is 0.15%. Cells were incubated at 37° C., 5% CO2 for 72 h. Following 72 h of incubation with compounds each plate was developed and read. CellTiter-Glo reagent was added to assay plates using a volume equivalent to the cell culture volume in the wells. Plates were shaken for approximately two minutes and incubated at room temperature for approximately 15 min and the chemiluminescent signal is read on the Victor V or Envison 2100 reader. […] Concentration of compound that inhibited 50% of cell growth (IC50) was analysis by 4 or 6 parameter fit of data using XLfit, value of no cell addition was subtracted from all samples for background.

MX-1 = assay: Cell-Titer Glo Cell Growth Inhibition Assay, MX-1; conditions: Homo sapiens, MX1, CellTiter-Glo, 72 h, read-out: CTG MX-1 IC50
Experimental: as §2

pIC50 (HCT-116)	pIC50 (HT29)	Structure (SMILES)	pIC50 (H460)	pIC50 (A549)	pIC50 (RKO)	pIC50 (MX-1)
> 7.00	> 7.00	C[C@@H](Oc1cc(-n2cnc3cc(-c4ccc(N5CCNCC5)nc4)ccc32)sc1C(N)=O)c1ccccc1C(F)(F)F [Example 1, 5-{5-[6-(1-piperazinyl)-3-pyridinyl]-1H-benzimidazol-1-yl}-3-({(1R)-1-[2-(trifluoromethyl)phenyl]ethyl}oxy)-2-thiophenecarboxamide]	6.00 to 7.00	6.00 to 7.00	> 7.00	> 7.00
> 7.00	> 7.00	C[C@@H](Oc1cc(-n2cnc3cc(-c4ccc(N5CCNCC5)nc4)ccc32)sc1C(N)=O)c1ccccc1Cl [Example 7, 3-{[(1R)-1-(2-Chlorophenyl)ethyl]oxy}-5-{5-[6-(1-piperazinyl)-3-pyridinyl]-1H-benzimidazol-1-yl}-2-thiophenecarboxamide]	–	–	> 7.00	6.00 to 7.00

Structure (SMILES)	pIC50 (HCT-116)	pIC50 (HT29)	pIC50 (H460)	pIC50 (A549)	pIC50 (RKO)	pIC50 (MX-1)
C[C@@H](Oc1cc(-n2cnc3cc(-c4cnn(C)c4)ccc32)sc1C(N)=O)c1ccccc1Cl [Example 9, 3-{[(1R)-1-(2-Chlorophenyl)ethyl]oxy}-5-[5-(1-methyl-1H-pyrazol-4-yl)-1H-benzimidazol-1-yl]-2-thiophenecarboxamide]	> 7.00	> 7.00	> 7.00	> 7.00	> 7.00	> 7.00
